# Results published in ChEMBL document CHEMBL3102772, “New natural products as new leads for antibacterial drug discovery” (Bioorg Med Chem Lett, 2014).
# Starred links: 1 amine or outer side, 2 acyl side, 3 side chain; linkers in the order of their positions; H or OH if unused. Positions of bridges follow the written chain, without caps; N, C: chain ends. Non-standard residues stand in square brackets, D forms with d. Residues, ends and D or L forms follow the SMILES beside them. X1 = CC(C)=CCc1ccc(Cl)c2[nH]cc(CC(N[*:1])C(=O)[*:2])c12; Trp(7-Cl) = N[CH](Cc1c[nH]c2c(Cl)cccc12)C(=O)O; Malonyl = O=C(CC(=O)[*:2])[*:1]; Cya = N[CH](CS(=O)(=O)O)C(=O)O; Dab = NCC[C@H](N)C(=O)O
# Assays:
# [1] = tested on: Escherichia coli; assay: Antibacterial activity against Escherichia coli SANK 70569 assessed as growth inhibition; type: functional
# [2] = tested on: Escherichia coli; assay: Antibacterial activity against Escherichia coli NCTC 10418 assessed as growth inhibition; type: functional
# [3] = tested on: Pseudomonas aeruginosa; assay: Bactericidal activity against Pseudomonas aeruginosa PA14 after 16 to 20 hrs by agar diffusion assay; type: functional
# [4] = tested on: Pseudomonas aeruginosa; assay: Antibacterial activity against Pseudomonas aeruginosa PA14 assessed as growth inhibition after 16 to 20 hrs by agar diffusion assay; type: functional, organism-based
# [5] = tested on: Pseudomonas aeruginosa; assay: Antibacterial activity against Pseudomonas aeruginosa ATCC 27853 assessed as growth inhibition by microdilution method; type: functional
# [6] = tested on: Pseudomonas aeruginosa; assay: Antibacterial activity against Pseudomonas aeruginosa ATCC 27853 infected in sc dosed mouse septisemia model measured at 1 to 5 hrs; type: functional; conditions: ATCC 27853, sc
# [7] = tested on: Escherichia coli; assay: Antibacterial activity against Escherichia coli clinical isolate assessed as growth inhibition; type: functional
# [8] = Cytotoxicity against human Fa2N-4 cells; type: cell-based
# [9] = tested on: Klebsiella pneumoniae; assay: Antibacterial activity against Klebsiella pneumoniae clinical isolate assessed as growth inhibition; type: functional
# [10] = tested on: HepG2; assay: Cytotoxicity against human HepG2 cells; type: cell-based
# [11] = tested on: Pseudomonas aeruginosa; assay: Antibacterial activity against Pseudomonas aeruginosa clinical isolate assessed as growth inhibition; type: functional
# [12] = tested on: Staphylococcus aureus; assay: Antibacterial activity against Staphylococcus aureus assessed as growth inhibition; type: functional
# [13] = tested on: Acinetobacter baumannii; assay: Antibacterial activity against Acinetobacter baumannii clinical isolate assessed as growth inhibition; type: functional
# [14] = tested on: Staphylococcus aureus; assay: Antibacterial activity against 24 clinical isolates of methicillin resistant Staphylococcus aureus […] assessed as growth inhibition by broth dilution method; type: functional
# [15] = tested on: Staphylococcus aureus; assay: Antibacterial activity against 10 clinical isolates of methicillin resistant Staphylococcus aureus […] assessed as growth inhibition by broth dilution method; type: functional
# [16] = tested on: Staphylococcus epidermidis; assay: Antibacterial activity against wild type Staphylococcus epidermidis RP62A assessed as growth inhibition after 24 hrs by micro-broth dilution method; type: functional
# [17] = Ratio of MIC for Staphylococcus epidermidis PAS9001 harboring SPase S92P mutant to MIC for wild type Staphylococcus epidermidis RP62A; type: functional
# [18] = tested on: Staphylococcus epidermidis; assay: Antibacterial activity against Staphylococcus epidermidis PAS9001 harboring SPase S92P mutant assessed as growth inhibition after 24 hrs by micro-broth dilution method; type: functional; conditions: PAS9001, 24 h
# [19] = tested on: Pseudomonas aeruginosa; assay: Antibacterial activity against Pseudomonas aeruginosa PAS2006 harboring SPase P84S mutant assessed as growth inhibition after 24 hrs by micro-broth dilution method; type: functional; conditions: PAS2006, 24 h
# [20] = tested on: Staphylococcus aureus; assay: Antibacterial activity against Staphylococcus aureus PAS8001 harboring SPase P29S mutant assessed as growth inhibition after 24 hrs by micro-broth dilution method; type: functional; conditions: PAS8001, 24 h
# [21] = tested on: Escherichia coli; assay: Antibacterial activity against Escherichia coli PAS0232 harboring SPase P84S mutant assessed as growth inhibition after 24 hrs by micro-broth dilution method; type: functional; conditions: PAS0232, 24 h
# [22] = tested on: Bacillus subtilis; assay: Antibacterial activity against Bacillus subtilis assessed as growth inhibition; type: functional
# [23] = tested on: Staphylococcus aureus; assay: Antibacterial activity against methicillin sensitive Staphylococcus aureus MB2865 assessed as growth inhibition after 20 hrs by agar dilution method; type: functional; conditions: MB2865, 20 h
# [24] = tested on: Staphylococcus aureus; assay: Antibacterial activity against methicillin resistant Staphylococcus aureus COL MB5393 assessed as growth inhibition after 20 hrs by agar dilution method; type: functional; conditions: COL MB5393, 20 h
# [25] = tested on: Escherichia coli; assay: Antibacterial activity against Escherichia coli MB5746 harboring envA1/TolC efflux pump mutant assessed as growth inhibition after 20 hrs by agar dilution method; type: functional; conditions: MB5746, 20 h
# [26] = tested on: Escherichia coli; assay: Antibacterial activity against Escherichia coli MB2884 assessed as growth inhibition after 20 hrs by agar dilution method; type: functional; conditions: MB2884, 20 h
smiles,measurement,setting,value
CCCCCC[C@H]1OC(=O)CNC(=O)[C@H]([C@H](C)O)NC(=O)[C@H](CO)NC(=O)[C@H]([C@H](C)CC)NC(=O)[C@H](CC(C)C)N(C)C(=O)[C@@H]1C,MIC,[1],12.5 µg/mL
CCC[C@@H]1OC(=O)[C@@H](C)C[C@H](C)CCCCC(=O)CCC[C@@H](CC)/C=C/C=C(\COC)CC[C@@H](O)[C@@H](O)C[C@H](O)CNC1=O,MIC,[2],6.25 µg/mL
CCCCCCC(CCCCCC(O)C(N)=O)OC(=O)C1CC=CN1C(=O)c1ccccc1O (stereo not drawn),MBC,[3],100 µg/mL
same,IC50,[4],0.16 µg/mL
CC[C@H](C)[C@@H]1NC(=O)[C@H](Cc2c[nH]c3ccccc23)NC(=O)[C@H]([C@@H](C)O)NC(=O)[C@@H]2CCCN2C(=O)[C@@H]2CCCN2C(=O)[C@H](CCN)NC(=O)[C@H](C)NC(=O)[C@H](CCN)NC(=O)[C@H](CCN)NC(=O)[C@H](Cc2c[nH]c3ccccc23)NC(=O)[C@H](CCN)NC(=O)[C@H](CCN)NC(=O)[C@H](CCCCN)NC(=O)[C@H](CCN)NC1=O (cyclo(A[Dab]PPTWI[Dab]K[Dab][Dab]W[Dab][Dab])),MIC,[5],0.008 µg/mL
same,ED50,[6],0.25 mg/kg
[C-]#[N+]C(=C)[C@@](Cc1ccc(OC)cc1)([N+]#[C-])C1C[C@@H](OC(=O)CO)CC[C@@H]1O (stereo partly drawn),MIC,[7],0.256 µg/mL
same,Activity,[8],> 512 µg/mL
same,MIC,[9],0.256 µg/mL
same,Activity,[10],> 512 µg/mL
same,MIC,[11],0.256 µg/mL
same,MIC,[12],> 128 µg/mL
same,MIC,[13],0.256 µg/mL
CCC[C@@H]1OC(=O)[C@@H](C)C[C@H](C)CCCCC(=O)CCC[C@@H](CC)CC/C=C(\COC)CC[C@@H](O)[C@@H](O)C[C@H](O)CNC1=O,MIC,[2],3.12 µg/mL
CC(C)=CCc1ccc(Cl)c2[nH]cc(CC3NC(=O)C(Cc4c[nH]c5c(Cl)cccc45)NC(=O)C4CCCN4C(=O)C(CS(=O)(=O)O)NC(=O)C(NC(=O)C(NC(=O)C(C)NC(=O)CC(=O)O)C(C)C)COC(=O)C(CO)NC(=O)C(CC(C)C)NC(=O)C(C(C)C)NC3=O)c12 (stereo not drawn) (Malonyl-AVS[Cya]P[Trp(7-Cl)][X1]VLS; ester 3-C; configuration not given here),MIC,[14],16 µg/mL
CCCC(C)/C=C(/C)C(=O)OC(CCCCCCC/C=C/C(=O)NCCC(=O)NC(CS(=O)(=O)O)C(=O)N(C)C1C(=O)NC(C)C(=O)NC(C(=O)O)Cc2ccc(OS(=O)(=O)O)c(c2)-c2cc1cc(OS(=O)(=O)O)c2O[C@H]1O[C@H](C)[C@@H](O)[C@H](O)[C@@H]1O)CCC(C)C (stereo partly drawn),MIC,[15],0.5 µg/mL
CCCCCCCCCC[C@H]1OC(=O)CNC(=O)[C@H]([C@H](C)O)NC(=O)[C@H](CO)NC(=O)[C@H]([C@H](C)CC)NC(=O)[C@H](CC(C)C)N(C)C(=O)[C@@H]1C,MIC,[1],1.56 µg/mL
CCCCCCCCCCCCCCCC(=O)N(C)[C@H](CO)C(=O)N[C@H](C)C(=O)NCC(=O)N(C)[C@@H]1C(=O)N[C@@H](C)C(=O)N[C@H](C(=O)O)Cc2ccc(O)c(c2)-c2cc1ccc2O [ARYLOMYCIN C16],MIC,[16],0.25 µg/mL
same,Ratio,[17],32
same,MIC,[18],8 µg/mL
same,MIC,[19],8 µg/mL
same,MIC,[20],2 µg/mL
same,MIC,[21],4 µg/mL
C/C(=C\c1ccc(N(C)C)cc1)C(=O)N[C@@H]1[C@H](O)[C@@H](O)[C@H]2OC(OC(C(=O)O)C(O)CO)O[C@H]2[C@@H]1N(C)C (stereo partly drawn),MIC,[22],70 µg/mL
C=C1CC[C@@H](O[C@H]2C[C@@](O)([C@H](C)NC(=O)c3[nH]c(C)c(Cl)c3Cl)[C@H](O)[C@@H](C)O2)[C@@H]2C=C[C@H](C)C(/C(O)=C3\C(=O)[C@H](C(C)C)N([C@H]4O[C@H](C)[C@H](OC(N)=O)[C@H](OC(C)=O)[C@@H]4OC)C3=O)[C@@H]12 (stereo partly drawn) [KIBDELOMYCIN],MIC,[23],2 µg/mL
same,MIC,[24],0.5 µg/mL
same,MIC,[25],32 µg/mL
same,MIC,[26],> 64 µg/mL
